Legend:
[1] = Cytotoxicity MTT assay on RAW 264.7 cells; assay type: cell-based, Murine; conditions: mouse, RAW 264.7 macrophage cells, 48 h incubation, read-out: IC50, cytotoxic effect on RAW264.7 cells
Experimental: Murine macrophage RAW 264.7 cell line obtained from the American Type Culture Collection (Rockville, MD, United States) was maintained in DMEM supplemented with 10% fetal calf serum (FCS) and 1% penicillin/streptomycin/fungizone (PSF) under standard cell culture conditions at 37°C and 5% CO2 in a humidified environment.
The cytotoxic effect of compounds on RAW 264.7 cells was assessed using the 3-(4, 5-dimethylthiazol-2-yl)-2, 5-diphenyl tetrazolium bromide (MTT) assay as established by Mosmann ([Mosmann, 1983]) with slight modifications. Briefly, cells were seeded at a density of 1 × 10^5 cells/mL (100 µL) in 96-well microtitre plates and incubated at 37°C and 5% CO2 in a humidified environment. After 24 h incubation, 100 µL of compounds (at concentration ranged from to 250 μM–1.95 µM) were added to the wells containing cells and further incubated for 48 h in a CO2 incubator. A suitable control (untreated cells) was included and doxorubicin was used as a positive reference. Thereafter, the medium in each well was aspirated from the cells, which were then washed with PBS, and finally fresh medium (200 µL) was added to each well. Then, 30 µL of MTT (5 mg/mL in PBS) was added to each well and the plates were incubated at 37°C for 4 h. The medium was aspirated from the wells and DMSO was added to solubilize the formed formazan crystals. The absorbance was read at 570 nm (SpectraMax 190, Molecular devices). The percentage of cell inhibition was calculated with reference to the control (untreated cells taken as 100% viability). Then, the IC50 values of plant compounds showing more than 50% cell growth inhibition were calculated by plotting the percentage inhibition against the concentration.

[2] = tested on: RAW 264.7 macrophage cells; design: method as in Sukandar et al., 2023; conditions: final concentration of 100 μM, ref Sukandar et al., 2023; cited from earlier work
NO production = tested on: NO production; design: method as in Liu et al., 2016; conditions: ref Liu et al., 2016; read-out: IC50, inhibition of NO production; cited from earlier work

Row | Molecule | IC50 at 48 h [1] [µM] | IC50 (NO production) [µM] | other results
1 | CC(C)=CCCC1(C)C=Cc2c(cc3oc4c(O)ccc(O)c4c(=O)c3c2O)O1 (stereo not shown) [Compound 3, Smeathxanthone B] | > 100 |  | melting point: 187 to 189 °C
2 | COc1cccc2c1C(=O)c1c(O)c3c(c(O)c1C2=O)C[C@@](O)(C(=O)CO)C[C@@H]3O[C@H]1C[C@H](N)[C@H](O)[C@H](C)O1 [Doxorubicin, doxorubicin, reference compound] | 4.63 |  | 
3 | CC12CCC3C1C(c1c(cc(O)c(C(=O)c4ccccc4)c1O)O2)C3(C)C (stereo not shown) [clusiacyclol A] |  |  | NO inhibition [2]: over 85%; cytotoxicity (in words) [2]: without obvious cytotoxicity
4 | garcinoxanthone B |  | 11.3 | 
5 | garcinoxanthone C |  | 18 | 
